In PubChem BioAssay (NCI) one finds TGI data, which are given here for 16 molecules.

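Exposure lasted 48 hours, with cells grown in 96-well plates and compounds tested at five concentrations. TGI denotes the concentration required for complete inhibition of growth.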

Holding throughout (test): growth of human tumour cells (NCI), 48 h
Assay [1] deals with SF-268 CNS.
Assay [2] deals with HS 578T breast.
For assay [3], the system named is SNB-75 CNS.
In assay [4] the test system is HOP-92 NSCLC.
Assay [5] deals with MALME-3M melanoma.
Assay [6] deals with HCT-15 colon.
Assay [7] deals with T-47D breast.
For assay [8], the system named is SK-MEL-5 melanoma.
Assay [9] deals with TK-10 renal.
Assay [10] deals with NCI-H460 lung.
The test system of assay [11] is OVCAR-4 ovarian.
Assay [12] has as its system HT29 colon.
For assay [13], the system named is RXF 393 renal.

On to `COC1=CC(=O)c2c(O)ccc(O)c2C1=O`, for which the TGI in [1] came to 17.9 µM; in assay [2] it was 19.5 µM; in assay [3], 3.65 µM; in [4], 33 µM; in assay [5], 0.357 µM; in [6], 6.91 µM. Also, the TGI in assay [7] amounted to 41.3 µM; in [8], 2.65 µM; in assay [9], 28.3 µM; in assay [10], 12.9 µM; in assay [11], 27.2 µM; in [12], 4.41 µM. The TGI in assay [13] was 31.3 µM.

For `CC(C)CCNC(=O)c1ccc(CNC(=O)/C=C/c2csc(-c3ccccc3)n2)cc1`, the TGI in assay [1] was above 100 µM; in assay [2], above 100 µM; in assay [3], 41.8 µM; in assay [4] it was above 100 µM; in assay [5] it was above 100 µM; in assay [6], above 100 µM. In addition, the TGI in assay [7], in [8], in [9], in assay [10], in assay [11] and in assay [12] was above 100 µM throughout. The TGI in [13] worked out at 73.6 µM.

Consider `O=NNc1cnccn1`, for which the TGI in [1], in assay [2], in assay [3], in assay [4], in assay [5] and in assay [6] was above 1250 µM in each case. Besides, the TGI in [7], in assay [8], in [9], in assay [10], in [11] and in assay [12] was above 1250 µM in each case. The molecule further gave a TGI in assay [13] above 1250 µM.

Regarding `Clc1ccc2c(c1)CC1C[N+]3=C(CCCC3)C1=C2` (stereo not drawn), the TGI in assay [1], in assay [2], in assay [3], in [4], in assay [5] and in assay [6] was above 100 µM in each case. Besides, the TGI in [7], in assay [8], in assay [9], in assay [10], in assay [11] and in assay [12] was above 100 µM in each case. This molecule returned a TGI in assay [13] above 100 µM.

With `O=c1[nH]cc(N(CCCl)CCCl)c(=O)[nH]1`, the TGI in assay [1] is 192 µM; in [2], 301 µM; in [3] it was 162 µM; in assay [4], 123 µM; in assay [5], 106 µM; in assay [6] it was 251 µM. For the same molecule, the TGI in [7] was found to be 183 µM; in [8] it was 115 µM; in [9], 325 µM; in assay [10] it was 155 µM; in assay [11] it was 199 µM; in [12], 306 µM. Further, the TGI in assay [13] was 81.1 µM.

As to `OCCCCn1cc(Cn2ncc3c(SCc4ccccc4)ncnc32)nn1`, the TGI in [1], in [2], in assay [3], in assay [4], in assay [5] and in assay [6] was above 100 µM in each case. For the same molecule, the TGI in assay [7] is above 100 µM; in assay [8], 54.5 µM; in assay [9], above 100 µM; in assay [10] it was above 100 µM; in assay [11], above 100 µM; in assay [12] it was above 100 µM. This molecule came in with a TGI in assay [13] above 100 µM.

For `CN(C)CS/C(N)=N\C(O)C(Cl)(Cl)Cl` (stereo not drawn), the TGI in assay [1], in assay [2], in assay [3], in assay [4], in [5] and in assay [6] was above 100 µM in each case. Besides, the TGI in [7], in [8], in assay [9], in assay [10], in assay [11] and in assay [12] was above 100 µM in each case. The TGI in [13] is above 100 µM.

Turning to `CCOC(=O)/C=C(\C(=O)OCC)n1cnc2c(N)ncnc21`, the TGI was determined as 37.6 µM in assay [1]; 51.5 µM in assay [2]; 26 µM in assay [3]; 7.12 µM in assay [4]; 15.8 µM in assay [5]; 12.2 µM in [6]. Besides, the TGI in assay [7] is 14 µM; in assay [8], 28.6 µM; in assay [9], 17.3 µM; in assay [10], 38.7 µM; in assay [11], above 48.7 µM; in assay [12], 23.1 µM. In assay [13], this molecule yielded a TGI of 26.4 µM.

Consider `Cc1nn(-c2ccccc2)c2c1C(c1cc3ccccc3nc1Cl)NC(=S)N2` (stereo not drawn), for which the TGI in assay [1] is above 100 µM; in assay [2], above 100 µM; in assay [3], above 100 µM; in assay [4], 96.6 µM; in assay [5], above 100 µM; in assay [6] it was above 100 µM. Further, the TGI in assay [7], in assay [8], in [9], in assay [10], in [11] and in [12] was above 100 µM in each case. The molecule also gave a TGI in assay [13] of 71.8 µM.

Consider `O=Cc1[nH]c(=O)[nH]c(=O)c1CCl`, for which the TGI is above 100 µM in assay [1]; above 100 µM in [2]; 75.6 µM in assay [3]; above 100 µM in assay [4]; above 100 µM in assay [5]; above 100 µM in assay [6]. The TGI in assay [7] is above 100 µM; in assay [8] it was above 100 µM; in assay [9] it was above 100 µM; in assay [10], 99.5 µM; in assay [11] it was above 100 µM; in assay [12] it was above 100 µM. This molecule gave a TGI in assay [13] above 100 µM.

As to `CC(=O)OCC1OC(n2c3c(cc(C#N)c2=S)CCCCCC3)C(OC(C)=O)C(OC(C)=O)C1OC(C)=O` (stereo not drawn), the TGI in [1], in assay [2], in [3], in assay [4], in assay [5] and in assay [6] was above 100 µM in each case. Besides, the TGI is 30.4 µM in [7]; above 100 µM in assay [8]; above 100 µM in assay [9]; above 100 µM in assay [10]; above 100 µM in assay [11]; above 100 µM in [12]. This molecule also gave a TGI in assay [13] above 100 µM.

For the molecule `CCCN1CN(c2ccccc2)C2(CCN(CCCC(=O)c3ccc(F)cc3)CC2)C1=O`, the TGI in assay [1] is 23.8 µM; in assay [2], 34.1 µM; in [3] it was 47.5 µM; in assay [4] it was 8.98 µM; in assay [5], 30.1 µM; in [6] it was 16.9 µM. Moreover, the TGI in assay [7] amounted to 35 µM; in assay [8] it was 4.84 µM; in assay [9] it was 22.4 µM; in assay [10] it was 26.9 µM; in assay [11], 20.2 µM; in assay [12], 7.02 µM. The TGI in assay [13] stood at 37 µM.

As for `C=C(CN(C)C)C(=O)c1cc(C)ccc1C`, the TGI was 68.3 µM in assay [1]; above 91.3 µM in assay [2]; 43.4 µM in assay [3]; 8.2 µM in assay [4]; 7.77 µM in [5]; 10.6 µM in assay [6]. Besides, the TGI in assay [7] worked out at 15.7 µM; in assay [8], 27.2 µM; in [9], 20.4 µM; in assay [10], 44.6 µM; in assay [11] it was 39.4 µM; in [12], 29.3 µM. In assay [13], this molecule had a TGI of 9.52 µM.

`COc1cc(C=Nc2ccc(S(N)(=O)=O)cc2)cc(OC)c1`: the TGI in assay [1], in assay [2], in assay [3], in assay [4], in assay [5] and in [6] was above 50 µM in each case. Also, the TGI in [7], in assay [8], in assay [9], in [10], in [11] and in assay [12] was above 50 µM in each case. Moreover, in assay [13], the TGI was above 50 µM.

Turning to `O=C(O)CSc1nnc(CCCCCCCCc2nnc(SCC(=O)O)o2)o1`, the TGI in assay [1] was above 100 µM; in assay [2] it was above 100 µM; in assay [3], 73.1 µM; in [4], above 100 µM; in assay [5] it was above 100 µM; in [6], above 100 µM. Further, the TGI in assay [7], in assay [8], in [9], in assay [10], in assay [11] and in assay [12] was above 100 µM each time. Moreover, in assay [13], the TGI is above 100 µM.

For the molecule `COCC(=O)OC1CCn2c1nc1c2C(=O)C(C)=C(NC(C)=O)C1=N` (stereo not drawn), the TGI in assay [1] amounted to 10.3 µM; in [2] it was 18.8 µM; in [3], 29 µM; in assay [4], 9.11 µM; in assay [5], 2.7 µM; in [6], 27.5 µM. For the same molecule, the TGI in assay [7] is 6.98 µM; in assay [8], 5.92 µM; in assay [9] it was 32 µM; in assay [10] it was 31 µM; in assay [11], 4.89 µM; in assay [12], above 47.4 µM. This molecule had a TGI in assay [13] of 6.47 µM.
